Measurements: US9012153B2, “Method for screening olfactory sensibility inhibitor” (Kao Corporation, priority 2008, dated 2015)

What was measured:
[1] = tested on: isovaleric acid (malodorous substance); assay: Olfactory masking test based on sensory evaluation with 20 specialists; type: in vivo; set-up: key: 0 = no masking effect, 5 = complete masking effect; details: isovaleric acid (1%) 2 μL, test substance 4 μl, vaporized and admixed in PP bottle; scale 0 (No masking effect) to 5 (Complete masking effect)
Method: An olfactory masking test based on sensory evaluation was performed with 20 specialists. Isovaleric acid (1%) was used as a malodorous substance, and each of the substances listed in Table 2 was employed as a masking material. The malodorous substance (2 μL) and each test substance (4 μl) were separately absorbed by cotton balls (diameter: 1 cm), and placed in each injection syringe (capacity: 50 mL) at room temperature for 12 hours to vaporized the substance therein. Both the vaporized malodorous substance and the vaporized test substance were injected into a PP bottle (capacity: 500 mL) with a cap and admixed in the bottle. In evaluation, each specialist slightly opened the cap of the PP bottle and smelled the odor in the bottle, whereby the masking score was determined. The masking score was evaluated by the following six criteria, based on the intensity of odor in a PP bottle to which only the malodorous substance had been added.
1: Only slight masking effect
3: Satisfactory masking effect
4: Substantially complete masking effect
5: Complete masking effect

[2] = tested on: voltage-dependent cation channel; assay: Whole-cell recording of inward current in isolated olfactory receptor cells; type: cell-based, Cynops pyrrhogaster
Method: Olfactory receptor cells were isolated from newts (Cynops pyrrhogaster) through a known method (Kurahashi et al., J. Physiol. (1989), 419: 177-192) and bathed in a normal Ringer's solution. More specifically, each newt which had been hibernated in ice-water was double-pithed, and the skull thereof was cut, to thereby remove the olfactory membrane. The removed olfactory membrane was incubated in 0.1% collagenase solution at 37° C. for five minutes. After washing off collagenase, the membrane tissue was broken by means of a glass pipette, to thereby isolate olfactory cells. The normal Ringer's solution had the following composition: NaCl 110 mM, KCl 3.7 mM, CaCl2 3 mM, MgCl2 1 mM, glucose 15 mM, sodium pyruvate 1 mM, HEPES 2 mM, and Phenol Red 0.001% (w/v), with a pH of 7.4 (adjusted with NaOH).
The membrane current of the isolated olfactory cells was recorded through the whole-cell recording method, while the membrane potential was fixed (Kawai et al., J. Gen. Physiol. (1997), vol. 109: 265-272). The electrode employed was produced from borosilicate glass capillary (diameter: 1.2 mm) by means of a puller for electrode fabrication (PP-830, product of Narishige Scientific Instruments). […] Then, an electrode solution was added in the electrode, and an Ag—AgCl wire was inserted into the electrode. The Ag—AgCl wire was connected to a patch-clamp amplifier (Axopatch 1D, 200B, product of Axon Instrument), whereby fixation of the membrane potential and depolarization stimulation were performed. The employed electrode solution had the following composition: KCl 120 mM, HEPES 2 mM, and Phenol Red 0.001% (w/v), with a pH of 7.4 (adjusted with KOH). The membrane current was recorded by a computer which was connected by the mediation of the patch-clamp amplifier and an A/D converter (Digidata 1320, product of Axon Instrument). Each test substance was sprayed to the cells for stimulation, by means of a pressure-controller. The pressure controller is an apparatus which reduces the pressure of compressed air supplied by means of an air-compressor to a specific value under computer-controlled conditions and which feeds the compressed air for a predetermined period of time to a tail of the glass pipette in which the test substance has been charged (Ito et al., The Japanese Journal of Physiology, 1995, vol. 57, 127-133).
In order to investigate the effect of the test substance on the voltage-dependent cation channel activity, the membrane potential of the isolated olfactory cells was fixed to −100 mV, and depolarized to −20 mV for 20 ms at intervals of 200 ms. The peak amplitude of the inward current elicited immediately after depolarization was measured. Each of the test substances shown in Table 1 (1 μL) was mixed with the normal Ringer's solution (1 mL). Under continuous depolarization stimulation, the mixture was sprayed toward the olfactory cells (720 ms, at 50 kPa) through a glass pipette (tip diameter: 1 μm) that was placed such that the tip of the pipette was located in the vicinity ([…]) of the olfactory cells to add the mixture to the olfactory cells, and the change in inward current was monitored. Stimulation of one olfactory cell by the test substance was performed three times, and the three inward currents obtained from the cell were averaged. Each test substance was tested by three olfactory cells, and the three inward currents obtained from the cells were averaged. During the test, in very rare cases, the olfactory receptor responded to stimulation by the test substance, and inward current attributed to a CNG channel was observed. However, such cases were eliminated for evaluation. One conceivable reason for occurrence of such a case is that the test substance acts as an […] to the olfactory receptor on the olfactory cell employed in the test. CNG channel current is readily distinguishable from voltage-dependent channel current in terms of amplitude, peak shape, and duration. […]

[3] = test substance 1 μL in 1 mL normal Ringer's solution, sprayed 720 ms at 50 kPa, depolarized from −100 mV to −20 mV, (1−b/a)×100, average of three cells
[4] = values calculated in the experiments of Example 1, repeated in Table 3

| SMILES | Masking score [1] | Percent inward current inhibition [2, 3] [%] | Percent inward current inhibition [2, 4] [%] |
| --- | --- | --- | --- |
| CC(=O)OC1CCCCC1C(C)(C)C (centres unmarked) [o-tert-Butylcyclohexyl acetate] | 1.8 | 23.8 | 23.8 |
| CCOC(=O)C(C)C1CCCCC1 (centres unmarked) [Ethyl 2-cyclohexylpropionate] | 3.0 | 48.7 | 48.7 |
| CC(C)=CCCC(C)=CC=O [Citral] | 3.9 | 110.6 | 110.6 |
| CC12CCC(CC1)C(C)(C)O2 [1,8-Cineole] | 3.6 | 46.5 | 46.5 |
| C/C=C/C(=O)C1=C(C)CCCC1(C)C [β-Damascone] | 2.4 | 56.1 | 56.1 |
| CC(=O)OCc1ccccc1 [Benzyl acetate] |  | 110.8 |  |
| CC/C=C\CCO [cis-3-Hexenol] | 4.5 | 78.7 | 78.7 |
| C=CC(C)(CCC=C(C)C)OC(C)=O (centres unmarked) [Linalyl acetate] | 3.0 | 43.3 | 43.3 |
| CC(C)(O)CCCC1=CCC(C=O)CC1 (centres unmarked) [4-(4-Hydroxy-4-methylpentyl)-3-cyclohexene-1-carboxaldehyde] | 1.7 | 35.7 | 35.7 |
| C=CC(C)CCCC(C)(C)O (centres unmarked) [Dihydromyrcenol] | 4.8 | 109.0 | 109.0 |
| CCCCCC1C(=O)CCC1CC(=O)OC (centres unmarked) [Methyl dihydrojasmonate] |  | 107.1 |  |
| CCOC(=O)C12CCCC1C1CCC2C1 (centres unmarked) [Ethyltricyclo[5.2.1.0^2,6]decane-2-carboxylate] | 1.9 | 11.6 | 11.6 |
| OCCc1ccccc1 [β-Phenylethyl alcohol] | 2.9 | 82.6 | 82.6 |
| C=CCc1ccc(O)c(OC)c1 [Eugenol] |  | 105.0 |  |
| CCCCCCCCC=O [n-Nonanal] |  | 107.4 |  |
| CC(=CCC1CC=C(C)C1(C)C)CO (centres unmarked) [2-Methyl-4-(2,2,3-trimethyl-3-cyclopenten-1-yl)-2-buten-1-ol] |  | 105.6 |  |
| CC1=CC(C)C(C=O)CC1 (centres unmarked) [2,4-Dimethyl-3-cyclohexene-1-carboxaldehyde] | 4.5 | 79.9 | 79.9 |
| CC(C)=CCC/C(C)=C/CO [Geraniol] | 3.9 | 90.1 | 90.1 |
| O=C(OCc1ccccc1)c1ccccc1 [Benzyl benzoate] | 1.6 | 10.7 | 10.7 |
| CCOC(=O)C(C)CC (centres unmarked) [Ethyl 2-methylbutyrate] |  | 42.0 |  |
| O=Cc1ccccc1 [Benzaldehyde] | 4.6 | 95.4 | 95.4 |
| C=CC(C)(O)CCC=C(C)C (centres unmarked) [Linalool] | 4.1 | 106.5 | 106.5 |
| COc1ccc(C=O)cc1 [Anisaldehyde] | 3.9 | 89.3 | 89.3 |
| CC(=O)OCCC(C)C [Isoamyl acetate] | 4.5 | 92.0 | 92.0 |
| CC(C=O)Cc1ccc(C(C)(C)C)cc1 (stereo not drawn) [p-tert-Butyl-α-methylhydrocinnamaldehyde] |  | 57.9 | 57.9 |
| CCC(O)COC1CCCCC1C(C)(C)C (centres unmarked) [1-(2-tert-Butylcyclohexyloxy)-2-butanol] | 1.7 | 27.1 | 27.1 |
